Reference: publication PMC3280530, “Marine Compounds Selectively Induce Apoptosis in Female Reproductive Cancer Cells but Not in Primary-Derived Human Reproductive Granulosa Cells” (Marine Drugs, 2012)
Where two headings read alike, the source gives them in different places.

Tests used:
[1] = tested on: CaCo2 colon carcinoma cells; design: method as in PMID 19491143; conditions: CaCo2, 4 h exposure, tyrindoleninone in an impure extract; read-out: concentration giving 50% reduction in cell viability; cited from earlier work
[2] = tested on: primary-derived human reproductive granulosa cells (HGC); assay: TUNEL staining (apoptosis); assay type: cell-based
Protocol: (§1) Primary-derived human granulosa cells and KGN cells were plated into Nunc Lab-Tek II CC2 Chamber Slides at 30,000 cells per chamber well in a final volume of 0.3 mL of DMEM/F12 + 10% FBS complete cell culture medium and incubated for 24 h at 37 °C + 5% CO2 to allow cell attachment to slides. Spent media (media deficient of nutrients and serum) and non-viable and non-adherent cellswere discarded and replaced with the D. orbita fractions at concentrations of 0.005, 0.01 and 0.05 mg/mL in a final volume of 0.3 mL of DMEM/F12 + 10% medium. A medium-only and a 1% DMSO control were also added before incubation for 4 and 24 h at 37 °C + 5% CO2. This experiment was repeated on three separate occasions (n = 3). The supernatant was removed and the cells rinsed with PBS before fixation with 4% paraformaldehyde for 25 min at room temperature. The DeadEnd™ Fluorometric TUNEL System (Promega) was performed as recommended by the manufacturer. Briefly the cells were treated with 0.2% Triton X-100 for 5 min, to permeablize the cells. The cells were rinsed in PBS before the addition of 50 μL of rTdT incubation buffer (Promega) at 37 °C for 1 h, protected from light. Cells were rinsed in 2× sodium chloride and sodium citratesolution (Promega) for 15 min at room temperature (25 °C) then rinsed again with PBS. The cells were counter-stained with 1 μg/mL propidium iodide (PI). A separate positive control slide of 1 μg/mL DNase I, and a negative control slide of buffer without rTdT, was prepared in conjunction with treatment slides. Cells were examined immediately and photographed at 200 and 400× magnification using a Fluorescence Olympus BX50 Microscope with filter Chroma 31001 at excitation 450–495 nm, Dichroic 505 and emission 515–555 nm for the green fluorescein of TUNEL and Chroma 31002 at excitation 515–550 nm, Dichroic 565 and emission 575–615 nm for the red fluorescence of the PI staining. Photomicrographs of four fields of view were taken for each treatment in each repeat of theassay and the number of TUNEL positive nuclei, stained bright green, were calculated as a fraction of the total number of PI stained nuclei, stained bright red, in each image. The average of the four fields was then calculated.

[3] = tested on: KGN cells; assay: MTT cell viability assay; assay type: cell-based, human; conditions: Homo sapiens
Protocol: (§2) For cell assays, the D. orbita fractions were prepared fresh on the day of the experiment by dissolving in dimethyl sulfoxide (DMSO; 100%) at 100× the final concentration. These were diluted to a range of working concentrations (0.001–0.5 mg/mL) in complete cell assay medium to give a final working concentration per well of 1% DMSO. All samples were filtered through a […] (Sartorius) filter before use.
(§3) The primary-derived granulosa cells, along with the KGN, JAr and OVCAR-3 cell lines (10,000 cells per well) were plated into sterile white (opaque) 96-well plates (Interpath) and clear sterile 96-well plates (Interpath) in 0.1 mL per well of complete cell culture medium for 24 h (granulosa, KGN and OVCAR-3 cells) and 2 h (for JAr cells) to allow cell adherence. Standard curves of 0–40,000 cells per well (primary granulosa cells) and 0–80,000 cells per well (for KGN, JAr and OVCAR-3 cells) in six replicate wells were plated into clear 96-well plates, alongside the test plates. After the initial cell adherence period, spent media (media deficient of nutrients and serum) were discarded and primary-derived granulosa, KGN, JAr and OVCAR-3 cells were treated with the two D. orbita fractions at concentrations of 0.005, 0.01, 0.05, 0.1, and 0.5 mg/mL in a final volume of 0.1 mL per well in triplicate wells, for 4 and 24 h at 37 °C + 5% CO2. 1 h prior to the end of eachincubation period two positive controls were added; one for apoptosis (1 μg/mL DNase I), and the second for necrosis (2 μL per well of a cell lysis buffer; Promega). This experiment was repeated on three separate occasions (n = 3).
(§4) After 4, 24, 48 and 72 h exposure to D. orbita fractions in clear 96-well plates, media and all dead unattached cells were removed. The remaining adherent cells were rinsed with sterile 1× PBS and the MTT assay was performed. The MTT assay measures the reduction of a yellow substrate to formazan, a purple precipitate, by the mitochondrial succinate dehydrogenase enzymes. A solution of 0.5 mg/mL MTT (was added to wells in a final volume of 0.1 mL. The plates were then incubated for 1 h (JAr cells) and 18 h (KGN, OVCAR-3 and GC cells) at 37 °C and 5% CO2. At the end of the incubation period, 80 μL/well 20% SDS in 0.02 M HCl was added and plate was incubated for a further 1 h at room temperature in the dark. The absorbance was the measured at 570 nm, with reference absorbance 630 nm, using an automatic spectrophotometer using KC Junior software. This assay was repeated on three separate occasions (n = 3).

[4] = tested on: OVCAR-3 cells; assay: MTT cell viability assay; assay type: cell-based, human; conditions: Homo sapiens, OVCAR-3, MTT
Protocol: as §2, §3, §4

[5] = tested on: lymphoma cell; design: method as in PMID 17088067; conditions: 1 h exposure; read-out: concentration giving (predicted) 50% reduction in lymphoma cell viability; cited from earlier work
[6] = tested on: untransformed human mononuclear cells (MNC); design: method as in PMID 19491143, PMID 17088067; conditions: in vitro, cited from earlier work
[7] = tested on: KGN cells; assay: TUNEL staining (apoptosis); assay type: cell-based, human
Protocol: as §1

[8] = tested on: KGN cells; assay: LDH membrane integrity assay (necrosis); assay type: cell-based, human
Protocol: as §3
(§5) After 4 and 24 h exposure to the D. orbita fractions in opaque 96-well plates, a combined membrane integrity and caspase 3/7 assay were performed on the primary-derived granulosa cells and KGN cells. The CytoTox-ONE Homogeneous Membrane Integrity Assay kit (Promega) was applied according to the manufacturer’s instructions. After the fluorescence was read at 535EX/590EM, the Caspase-Glo 3/7® assay (Promega) was applied to the primary granulosa cells and KGN cells according to the manufacturer’s instructions for1h and the plates were read on full light to capture total luminescence. The LDH-membrane integrity assay alone was performed on the JAr and OVCAR-3 cells using the CytoTox-ONE Homogeneous Membrane Integrity Assay kit (Promega). This assay was repeated on three separate occasions (n = 3).

[9] = tested on: OVCAR-3 cells; assay: LDH membrane integrity assay (necrosis); assay type: cell-based, human; conditions: OVCAR-3, 4 h exposure
Protocol: as §3, §5

[10] = tested on: JAr cells; assay: LDH membrane integrity assay (necrosis); assay type: cell-based, human; conditions: 4 h exposure
Protocol: as §3, §5

[11] = tested on: U937 lymphoma cell line; conditions: U937, 4 h exposure, tyrindoleninone in an impure extract; read-out: concentration giving 50% reduction in cell viability; cited from earlier work
[12] = tested on: caspase-3 and -7 activity in KGN cells; assay: Caspase-Glo 3/7 assay; assay type: cell-based, human; conditions: 4 h treatment
Protocol: as §3, §5

[13] = tested on: caspase-3 and -7 activity in HGC; assay: Caspase-Glo 3/7 assay; assay type: cell-based, human; conditions: 4 h treatment
Protocol: as §3, §5

[14] = tested on: KGN cells; assay: Crystal violet cell viability assay; assay type: cell-based; conditions: Homo sapiens
Protocol: as §2, §3
(§6) After 4 and 24 h exposure to D. orbita fractions in clear 96-well plates, media and all dead unattached cells were removed. The remaining adherent cells were rinsed with sterile 1× PBS and the crystal violet assay was performed. The crystal violet assay is a colourmetric assay in which only the nuclei of live cells take up the crystal violet stain (0.5%). The absorbance in the wells of the crystal violet plates were read on an automatic spectrophotometer at 570 nm, with reference absorbance 630 nm using KC Junior Software. This assay was repeated on three separate occasions (n = 3).

[15] = tested on: OVCAR-3 cells; assay: Crystal violet cell viability assay; assay type: cell-based; conditions: Homo sapiens, OVCAR-3, crystal violet
Protocol: as §2, §3, §6

[16] = tested on: JAr cells; assay: Crystal violet cell viability assay; assay type: cell-based; conditions: Homo sapiens
Protocol: as §2, §3, §6

[17] = tested on: primary-derived human reproductive granulosa cells (HGC); assay: Crystal violet cell viability assay; assay type: cell-based
Protocol: as §2, §3, §6

[18] = tested on: JAr cells; assay: MTT cell viability assay; assay type: cell-based; conditions: Homo sapiens
Protocol: as §2, §3, §4

[19] = tested on: primary-derived human reproductive granulosa cells (HGC); assay: MTT cell viability assay; assay type: cell-based; conditions: for IC50: Homo sapiens, HGC, MTT
Protocol: as §2, §3, §4

[20] = tested on: MCF-7 breast carcinoma cells; design: method as in PMID 19491143; conditions: MCF-7, 4 h exposure, tyrindoleninone in an impure extract; read-out: concentration giving 50% reduction in cell viability; cited from earlier work
[21] = tested on: primary-derived human reproductive granulosa cells (HGC); assay: LDH membrane integrity assay (necrosis); assay type: cell-based
Protocol: as §3, §5

IC50 ([4]; OVCAR-3, 4 h, 4 h): 156 µM
IC50 ([4]; OVCAR-3, 24 h, 24 h): 234 µM
IC50 ([4]; OVCAR-3, 48 h, 48 h): 31 µM
IC50 ([4]; OVCAR-3, 72 h, 72 h): < 20 µM
IC50 ([15]; 4 h): 313 µM
IC50 ([15]; 24 h): 352 µM
IC50 values fold lower for all three reproductive cancer cell lines than for the HGC ([19]; after 24, 48 and 72 h treatment, KGN, JAr, OVCAR-3 vs HGC): approximately 10 fold
SMILES: CSC1=Nc2cc(Br)ccc2C1=O [Tyrindoleninone, tyrindoleninone]
IC50 [1]: 391 µM
TUNEL positive cells ([2]; 4 h, 0.05 mg/mL): 31%
TUNEL labelled cells ([2]; 24 h, 0.005 mg/mL): 16%
IC50 ([3]; 4 h): 39 µM
IC50 ([3]; 24 h): 78 µM
IC50 ([3]; 48 h): 20 µM
IC50 ([3]; 72 h): < 20 µM
IC50 [5]: 4 µM
IC50 ([6]; 1 h exposure, read-out: IC50): 195 µM
IC50 [6]: 50 µg/mL
TUNEL positive cells ([7]; 4 h, 0.05 mg/mL): 66%
TUNEL labelled cells ([7]; 24 h, 0.005 mg/mL): 62%
LDH released (fluorescence 535EX/590EM) ([8]; 4 h, 1953 µM (0.5 mg/mL)): 1612 ± 771
concentration required to cause LDH release (necrosis) ([8]; 4 h exposure): 1953 µM
concentration required to cause LDH release (necrosis) ([8]; 24 h exposure): 195 µM
concentration at which necrosis (LDH release) was detected [9]: 391 µM
concentration at which necrosis (LDH release) was detected [10]: 195 µM
IC50 [11]: 391 µM
concentration at which caspase-3 and -7 activity (apoptosis) significantly increased [12]: 20 µM
concentration at which caspase-3 and -7 activity (apoptosis) was noted [13]: 391 µM
IC50 ([14]; 4 h): 156 µM
IC50 ([14]; 24 h): 156 µM
IC50 ([16]; 4 h): 234 µM
IC50 ([16]; 24 h): 195 µM
IC50 ([17]; 4 h): > 1950 µM
IC50 ([17]; 24 h): > 1950 µM
IC50 ([18]; 4 h): 39 µM
IC50 ([18]; 24 h): 117 µM
IC50 ([18]; 48 h): 78 µM
IC50 ([19]; 4 h): 3520 µM
IC50 ([19]; 24 h): 1560 µM
IC50 ([19]; 48 h): 1560 µM
IC50 ([19]; 72 h): 1560 µM
IC50 [20]: 391 µM
LDH released (fluorescence 535EX/590EM) ([21]; 4 h, 1953 µM (0.5 mg/mL)): 876 ± 1084
concentration required to cause LDH release (necrosis) ([21]; 4 h exposure): 1953 µM
concentration required to cause LDH release (necrosis) ([21]; 24 h exposure): 1953 µM
